Active and inactive are the calls of the source.
What was measured:
[1] = molecular target: Dual specificity protein phosphatase 3 (Homo sapiens, UniProt P51452); assay: SAR VHR1 Fluorescent Assay for In Vitro dose response studies Set 2. [Related pubchem assays (depositor defined):AID1654, AID1661, AID1878]; assay type: functional
[2] = molecular target: T1, Dual specificity protein phosphatase 6 (Rattus norvegicus, UniProt Q64346); assay type: functional;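 further: confirmatory in vitro dose-response testing of MKP-3 inhibition; recombinant His-tagged MKP-3 made in E. coli BL21 with OMFP substrate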
T1 sequence (Q64346 whole entry): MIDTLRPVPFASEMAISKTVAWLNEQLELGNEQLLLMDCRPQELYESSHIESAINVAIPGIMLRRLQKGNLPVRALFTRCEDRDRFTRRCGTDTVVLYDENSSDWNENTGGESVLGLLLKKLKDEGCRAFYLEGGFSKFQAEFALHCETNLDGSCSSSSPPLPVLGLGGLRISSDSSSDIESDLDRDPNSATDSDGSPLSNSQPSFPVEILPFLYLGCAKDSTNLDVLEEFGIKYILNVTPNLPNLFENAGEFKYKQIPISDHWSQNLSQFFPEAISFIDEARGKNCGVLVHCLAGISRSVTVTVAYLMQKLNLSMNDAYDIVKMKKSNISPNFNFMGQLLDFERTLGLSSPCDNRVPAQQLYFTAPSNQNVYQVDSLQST

[3] = system: T-cell; assay: loss of vesicle association with mouse CD8+ T cells – mouse 2C CD8+ T cells, flow cytometry, dose response (AID 485284); assay type: functional
[4] = molecular target: Induced myeloid leukemia cell differentiation protein Mcl-1 (Homo sapiens, UniProt Q07820); assay type: functional
Sequence of Induced myeloid leukemia cell differentiation protein Mcl-1 (Q07820 whole entry): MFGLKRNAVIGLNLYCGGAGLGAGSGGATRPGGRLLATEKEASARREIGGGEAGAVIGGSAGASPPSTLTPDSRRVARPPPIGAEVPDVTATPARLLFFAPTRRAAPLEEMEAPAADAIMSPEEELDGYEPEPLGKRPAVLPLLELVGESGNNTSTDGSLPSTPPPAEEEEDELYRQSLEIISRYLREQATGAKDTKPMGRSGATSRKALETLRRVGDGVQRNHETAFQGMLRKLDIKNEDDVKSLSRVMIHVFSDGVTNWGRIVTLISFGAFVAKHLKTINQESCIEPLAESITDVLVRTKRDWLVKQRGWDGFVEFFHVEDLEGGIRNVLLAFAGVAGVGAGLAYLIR

[5] = molecular target: Ion channel NompC (Danio rerio, UniProt Q7T1G6); assay: Dose response cell-based high-throughput screening assay for agonists of the transient receptor potential channel N1 (TRPN1). [Related pubchem assays (depositor defined):AID1424, AID1448]; assay type: functional
Sequence of Ion channel NompC (Q7T1G6 whole entry): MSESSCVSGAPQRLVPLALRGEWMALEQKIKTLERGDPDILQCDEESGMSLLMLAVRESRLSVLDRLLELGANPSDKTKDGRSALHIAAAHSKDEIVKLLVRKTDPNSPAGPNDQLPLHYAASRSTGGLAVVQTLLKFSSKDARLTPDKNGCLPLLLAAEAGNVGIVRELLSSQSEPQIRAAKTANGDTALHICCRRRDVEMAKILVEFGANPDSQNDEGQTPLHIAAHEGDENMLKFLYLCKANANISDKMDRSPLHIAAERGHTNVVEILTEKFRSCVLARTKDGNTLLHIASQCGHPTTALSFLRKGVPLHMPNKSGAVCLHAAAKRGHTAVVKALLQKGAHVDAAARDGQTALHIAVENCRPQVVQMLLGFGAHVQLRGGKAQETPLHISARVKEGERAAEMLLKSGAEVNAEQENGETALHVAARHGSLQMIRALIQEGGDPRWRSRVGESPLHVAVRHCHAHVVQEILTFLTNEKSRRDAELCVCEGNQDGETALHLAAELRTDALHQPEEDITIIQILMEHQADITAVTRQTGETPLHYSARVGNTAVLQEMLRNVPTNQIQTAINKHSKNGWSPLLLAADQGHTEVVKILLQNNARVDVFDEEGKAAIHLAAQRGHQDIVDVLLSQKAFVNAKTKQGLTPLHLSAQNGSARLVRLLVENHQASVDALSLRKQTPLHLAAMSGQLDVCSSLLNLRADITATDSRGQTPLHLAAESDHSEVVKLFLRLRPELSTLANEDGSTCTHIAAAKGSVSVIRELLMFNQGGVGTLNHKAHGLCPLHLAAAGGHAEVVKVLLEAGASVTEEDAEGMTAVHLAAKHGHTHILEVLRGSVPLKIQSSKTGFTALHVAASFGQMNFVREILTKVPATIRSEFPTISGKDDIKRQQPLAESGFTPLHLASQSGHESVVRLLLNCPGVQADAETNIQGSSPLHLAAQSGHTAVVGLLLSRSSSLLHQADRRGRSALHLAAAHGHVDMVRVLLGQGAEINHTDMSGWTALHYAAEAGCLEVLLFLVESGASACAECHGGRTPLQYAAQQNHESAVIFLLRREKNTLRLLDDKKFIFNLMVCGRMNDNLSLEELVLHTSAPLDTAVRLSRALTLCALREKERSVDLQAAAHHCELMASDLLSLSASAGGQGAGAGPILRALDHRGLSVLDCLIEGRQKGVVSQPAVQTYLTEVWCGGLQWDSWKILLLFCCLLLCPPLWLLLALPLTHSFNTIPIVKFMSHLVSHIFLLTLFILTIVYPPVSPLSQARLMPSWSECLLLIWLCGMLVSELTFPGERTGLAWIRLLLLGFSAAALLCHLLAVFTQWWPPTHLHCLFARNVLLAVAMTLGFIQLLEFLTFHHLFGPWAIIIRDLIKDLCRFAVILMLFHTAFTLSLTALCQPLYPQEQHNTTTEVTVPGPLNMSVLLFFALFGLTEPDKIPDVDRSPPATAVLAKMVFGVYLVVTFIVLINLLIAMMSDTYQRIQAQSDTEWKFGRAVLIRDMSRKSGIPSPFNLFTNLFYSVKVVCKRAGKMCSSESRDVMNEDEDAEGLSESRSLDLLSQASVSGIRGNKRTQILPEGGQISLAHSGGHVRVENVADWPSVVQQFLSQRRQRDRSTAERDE

[6] = molecular target: T2, NADPH oxidase 1 (Homo sapiens, UniProt Q9Y5S8); assay: Luminescence-based cell-based dose response assay to identify inhibitors of NADPH oxidase 1 (NOX1).; assay type: functional
T2 sequence (Q9Y5S8 whole entry): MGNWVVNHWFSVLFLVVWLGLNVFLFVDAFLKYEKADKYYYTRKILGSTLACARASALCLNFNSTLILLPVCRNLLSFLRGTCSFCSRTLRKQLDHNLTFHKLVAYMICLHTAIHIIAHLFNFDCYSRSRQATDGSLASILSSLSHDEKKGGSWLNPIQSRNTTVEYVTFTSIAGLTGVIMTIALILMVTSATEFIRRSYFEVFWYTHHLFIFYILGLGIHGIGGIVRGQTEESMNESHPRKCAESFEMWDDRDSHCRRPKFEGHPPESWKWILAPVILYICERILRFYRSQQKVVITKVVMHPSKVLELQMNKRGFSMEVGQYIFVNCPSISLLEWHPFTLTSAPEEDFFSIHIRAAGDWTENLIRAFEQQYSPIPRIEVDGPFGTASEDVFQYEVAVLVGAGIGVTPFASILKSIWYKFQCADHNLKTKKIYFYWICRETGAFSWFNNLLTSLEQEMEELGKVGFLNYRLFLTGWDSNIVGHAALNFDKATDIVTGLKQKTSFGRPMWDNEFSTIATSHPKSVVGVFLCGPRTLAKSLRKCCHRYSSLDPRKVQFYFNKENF

[7] = molecular target: T3, Mucolipin-3 (Homo sapiens, UniProt Q8TDD5); assay: Fluorescence counterscreen assay for […] agonists: dose response cell-based high-throughput screening assay to identify agonists of the transient receptor potential channel ML3 (TRPML3). [Related pubchem assays: 1424, 1448 ]; assay type: functional
T3 sequence (Q8TDD5 whole entry): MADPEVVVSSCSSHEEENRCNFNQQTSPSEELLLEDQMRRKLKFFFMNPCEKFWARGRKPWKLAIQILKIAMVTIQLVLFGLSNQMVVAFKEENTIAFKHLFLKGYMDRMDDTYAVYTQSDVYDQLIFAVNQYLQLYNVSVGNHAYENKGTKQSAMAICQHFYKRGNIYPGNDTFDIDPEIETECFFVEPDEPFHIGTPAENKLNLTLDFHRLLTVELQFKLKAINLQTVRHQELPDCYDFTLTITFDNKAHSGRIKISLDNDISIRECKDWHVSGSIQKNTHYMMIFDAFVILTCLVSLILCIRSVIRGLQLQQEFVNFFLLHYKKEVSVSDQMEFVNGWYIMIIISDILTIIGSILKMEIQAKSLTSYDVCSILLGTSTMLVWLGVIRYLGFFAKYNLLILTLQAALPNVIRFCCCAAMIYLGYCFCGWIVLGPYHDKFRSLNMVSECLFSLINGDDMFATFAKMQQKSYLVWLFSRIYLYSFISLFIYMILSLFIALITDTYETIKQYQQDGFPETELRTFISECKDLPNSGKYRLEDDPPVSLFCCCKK

[8] = molecular target: FAD-linked sulfhydryl oxidase ALR (Homo sapiens, UniProt P55789); assay: ALR-catalysed DTT oxidation blockers – biochemical, H2O2 detection, luminescence, cherry-pick, dose response (AID 493248)
Sequence of FAD-linked sulfhydryl oxidase ALR (P55789 whole entry): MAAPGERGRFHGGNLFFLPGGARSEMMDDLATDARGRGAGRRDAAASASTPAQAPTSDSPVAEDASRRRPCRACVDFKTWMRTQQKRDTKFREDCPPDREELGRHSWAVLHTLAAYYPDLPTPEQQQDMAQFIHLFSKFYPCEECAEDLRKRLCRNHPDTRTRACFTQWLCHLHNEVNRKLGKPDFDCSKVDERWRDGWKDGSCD

[9] = molecular target: Nonstructural protein 1 (Influenza A virus, UniProt Q194T2); assay type: functional, Influenza A virus (A/California/07/2009(H1N1))
Sequence of Nonstructural protein 1 (Q194T2 whole entry): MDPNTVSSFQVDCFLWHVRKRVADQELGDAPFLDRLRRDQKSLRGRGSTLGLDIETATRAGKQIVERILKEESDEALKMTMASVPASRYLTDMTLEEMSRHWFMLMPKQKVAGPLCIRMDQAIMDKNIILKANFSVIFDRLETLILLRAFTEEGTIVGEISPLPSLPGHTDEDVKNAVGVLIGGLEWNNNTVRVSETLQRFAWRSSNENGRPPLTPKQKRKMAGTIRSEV

[10] = molecular target: Integrin alpha-4 (Homo sapiens, UniProt P13612); assay: allosteric modulators of alpha4 integrin VLA-4 – cell-based, LIBS antibody binding, flow cytometry, SAR follow-up (AID 488791); assay type: functional
[11] = molecular target: T4, Coagulation factor XII (Homo sapiens, UniProt P00748); assay: Factor XIIa Dose Response Confirmation from Single Well HTS. [Related pubchem assays (depositor defined):AID701]; assay type: functional
T4 sequence (P00748 whole entry): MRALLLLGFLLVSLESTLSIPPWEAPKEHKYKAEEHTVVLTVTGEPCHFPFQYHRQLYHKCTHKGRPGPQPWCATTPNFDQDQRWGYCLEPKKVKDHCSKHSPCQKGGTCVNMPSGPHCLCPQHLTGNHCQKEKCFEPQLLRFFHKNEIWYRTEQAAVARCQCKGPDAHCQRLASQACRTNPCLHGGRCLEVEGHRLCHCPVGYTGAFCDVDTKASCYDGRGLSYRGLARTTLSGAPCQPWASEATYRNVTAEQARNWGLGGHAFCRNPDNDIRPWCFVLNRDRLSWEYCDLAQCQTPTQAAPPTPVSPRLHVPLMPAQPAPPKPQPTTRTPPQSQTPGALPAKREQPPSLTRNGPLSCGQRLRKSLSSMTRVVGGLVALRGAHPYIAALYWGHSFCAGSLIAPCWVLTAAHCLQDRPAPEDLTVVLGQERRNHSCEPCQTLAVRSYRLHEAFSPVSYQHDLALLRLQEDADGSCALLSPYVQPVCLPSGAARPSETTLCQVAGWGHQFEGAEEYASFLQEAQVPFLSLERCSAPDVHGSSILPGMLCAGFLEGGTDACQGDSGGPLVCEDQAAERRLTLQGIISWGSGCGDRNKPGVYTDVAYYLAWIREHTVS

[12] = Luminescent dose response cell-based high throughput screening assay for inhibitors of the Janus kinase 2 mutant JAK2V617F. [Related pubchem assays: 1446 (Primary screen.), 1521 (Confirmation assay.), 1486 (Counter screen.)]; assay type: functional
[13] = molecular target: T5, Replicative DNA helicase DnaB (Mycobacterium tuberculosis, UniProt P9WMR3); assay: DnaB intein splicing inhibitors, dose response, biochemical, cell-free fluorescence (AID 449749); assay type: functional
T5 sequence (P9WMR3 whole entry): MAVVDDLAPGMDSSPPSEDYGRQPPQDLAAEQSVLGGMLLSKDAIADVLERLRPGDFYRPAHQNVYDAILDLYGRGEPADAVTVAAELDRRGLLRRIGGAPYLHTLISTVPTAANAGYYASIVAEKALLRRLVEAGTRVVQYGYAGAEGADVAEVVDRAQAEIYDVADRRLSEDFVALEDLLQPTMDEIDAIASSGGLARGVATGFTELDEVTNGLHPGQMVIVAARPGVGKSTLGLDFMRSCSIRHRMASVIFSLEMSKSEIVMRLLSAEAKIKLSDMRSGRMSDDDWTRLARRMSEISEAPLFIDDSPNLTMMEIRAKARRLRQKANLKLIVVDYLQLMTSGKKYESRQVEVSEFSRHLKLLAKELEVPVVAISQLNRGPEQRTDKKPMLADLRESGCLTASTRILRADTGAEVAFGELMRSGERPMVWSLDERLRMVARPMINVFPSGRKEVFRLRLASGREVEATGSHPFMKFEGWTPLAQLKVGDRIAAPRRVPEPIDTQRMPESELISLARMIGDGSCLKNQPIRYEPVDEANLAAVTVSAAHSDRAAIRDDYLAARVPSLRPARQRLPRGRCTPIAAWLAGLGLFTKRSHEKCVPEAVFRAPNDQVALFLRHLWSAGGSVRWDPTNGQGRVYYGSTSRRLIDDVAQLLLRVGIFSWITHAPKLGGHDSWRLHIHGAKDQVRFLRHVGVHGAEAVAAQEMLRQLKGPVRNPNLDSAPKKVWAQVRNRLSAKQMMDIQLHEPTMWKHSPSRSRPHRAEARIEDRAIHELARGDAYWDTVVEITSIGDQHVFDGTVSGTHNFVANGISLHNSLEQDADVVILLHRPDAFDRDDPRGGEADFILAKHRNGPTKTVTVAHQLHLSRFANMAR

[14] = viability loss of HPDE-C7K cells – cell-based, fluorescence, HTS, primary screen (AID 431); assay type: functional; settings: Homo sapiens
[15] = molecular target: T6, Protein RecA (Mycobacterium tuberculosis, UniProt P9WHJ3); assay: Fluorescence Cell-Free Homogeneous Dose Retest to Identify Inhibitors of RecA-Intein Splicing Activity. [Related pubchem assays (depositor defined):AID2097, AID2223, AID489010, AID492950]; assay type: functional
T6 sequence (P9WHJ3 whole entry): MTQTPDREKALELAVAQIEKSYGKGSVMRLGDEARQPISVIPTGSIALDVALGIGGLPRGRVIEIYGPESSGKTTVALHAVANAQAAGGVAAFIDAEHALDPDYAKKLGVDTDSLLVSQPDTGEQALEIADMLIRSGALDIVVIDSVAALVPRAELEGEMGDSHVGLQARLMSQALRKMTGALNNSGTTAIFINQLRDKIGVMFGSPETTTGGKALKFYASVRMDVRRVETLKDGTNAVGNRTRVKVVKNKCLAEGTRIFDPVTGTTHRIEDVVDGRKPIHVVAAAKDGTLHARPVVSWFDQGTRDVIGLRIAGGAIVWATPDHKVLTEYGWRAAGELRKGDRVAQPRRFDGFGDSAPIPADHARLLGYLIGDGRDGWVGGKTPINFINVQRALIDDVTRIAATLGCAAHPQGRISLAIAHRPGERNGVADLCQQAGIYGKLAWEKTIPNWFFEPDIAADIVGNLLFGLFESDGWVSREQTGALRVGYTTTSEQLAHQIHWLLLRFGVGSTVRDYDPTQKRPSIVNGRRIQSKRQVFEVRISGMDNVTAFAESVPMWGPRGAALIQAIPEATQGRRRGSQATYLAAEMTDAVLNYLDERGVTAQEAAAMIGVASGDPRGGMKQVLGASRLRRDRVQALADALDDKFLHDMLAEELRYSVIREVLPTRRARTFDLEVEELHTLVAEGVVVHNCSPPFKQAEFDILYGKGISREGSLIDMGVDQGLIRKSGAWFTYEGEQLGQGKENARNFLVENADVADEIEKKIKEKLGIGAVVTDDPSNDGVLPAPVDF

[16] = molecular target: DNA damage-inducible transcript 3 protein (Mus musculus, UniProt P35639); assay type: functional, Cricetulus griseus
Sequence of DNA damage-inducible transcript 3 protein (P35639 whole entry): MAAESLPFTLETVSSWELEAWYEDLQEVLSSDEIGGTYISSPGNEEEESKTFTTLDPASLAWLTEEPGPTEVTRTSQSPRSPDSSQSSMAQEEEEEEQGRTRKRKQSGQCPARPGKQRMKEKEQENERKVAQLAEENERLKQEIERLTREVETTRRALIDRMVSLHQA

[17] = NIH3T3 cell viability loss – ATP luminescence, mouse fibroblasts, counter-screen, dose response (AID 2010); assay type: functional, cell-based;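 further: cells exposed to compound for about 90 hours before reading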
[18] = HPDE-C7 pancreatic duct cell viability loss – fluorescence, HTS (AID 430); assay type: functional, cell-based; settings: Homo sapiens
[19] = Trypanosoma cruzi growth suppression in host cells – NIH3T3 host cells, beta-gal luminescence, confirmation (AID 2044); assay type: functional, cell-based;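 further: intracellular parasites grown in NIH/3T3 mouse fibroblasts as host cells; luminescent beta-galactosidase reporter signal from transgenic T. cruzi replicating inside host cells; inhibitors lower the luminescence signal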
[20] = molecular target: T7, Kappa-type opioid receptor (Homo sapiens, UniProt P41145); assay: SAR analysis of Antagonists of the Kappa Opioid Receptor (KOR) using an Image-Based Assay - Set 3. [Related pubchem assays (depositor defined):AID1777, AID1785]; assay type: functional
T7 sequence (P41145 whole entry): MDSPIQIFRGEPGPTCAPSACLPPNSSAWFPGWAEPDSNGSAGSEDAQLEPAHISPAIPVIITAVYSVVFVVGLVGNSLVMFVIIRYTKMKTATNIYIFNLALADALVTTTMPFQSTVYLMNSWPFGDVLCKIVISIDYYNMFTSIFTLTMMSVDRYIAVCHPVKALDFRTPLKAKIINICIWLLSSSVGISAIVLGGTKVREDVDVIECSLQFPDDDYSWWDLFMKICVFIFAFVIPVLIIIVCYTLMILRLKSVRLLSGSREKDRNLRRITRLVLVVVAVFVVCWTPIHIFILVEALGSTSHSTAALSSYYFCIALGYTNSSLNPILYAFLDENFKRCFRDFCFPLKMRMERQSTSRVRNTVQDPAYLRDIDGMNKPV

[21] = molecular target: Delta-type opioid receptor (Homo sapiens, UniProt P41143); assay: SAR Analysis of Antagonists of the DOR Receptor using an Image-Based Assay - Set 3. [Related pubchem assays (depositor defined):AID1777, AID1785]; assay type: functional;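 further: U2OS cells expressing DOR1 and beta-arrestin GFP stimulated with 100 nM SNC80; imaging of GFP-tagged beta-arrestin moving into spots after receptor activation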
Sequence of Delta-type opioid receptor (P41143 whole entry): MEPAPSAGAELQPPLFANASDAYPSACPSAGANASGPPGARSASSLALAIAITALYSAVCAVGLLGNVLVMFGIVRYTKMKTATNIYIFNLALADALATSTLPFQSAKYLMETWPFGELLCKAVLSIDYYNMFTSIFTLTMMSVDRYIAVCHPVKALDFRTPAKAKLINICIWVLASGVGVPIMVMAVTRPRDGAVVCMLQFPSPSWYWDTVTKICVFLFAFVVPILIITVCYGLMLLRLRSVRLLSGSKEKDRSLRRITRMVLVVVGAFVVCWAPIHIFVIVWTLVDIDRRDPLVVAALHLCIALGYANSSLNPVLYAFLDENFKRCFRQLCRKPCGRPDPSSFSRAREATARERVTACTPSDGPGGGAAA

[22] = molecular target: T7, Kappa-type opioid receptor; assay: SAR analysis of small molecule antagonists of the kappa opioid receptor via a luminescent beta-arrestin assay - Set 3. [Related pubchem assays (depositor defined):AID1777, AID1778, AID1785, AID1786, AID1966, AID2133, AID2136, AID2285, AID2495]; assay type: functional
[23] = molecular target: Mu-type opioid receptor (Homo sapiens, UniProt P35372); assay: SAR Analysis of Antagonists of the MOR Receptor using an Image-Based Assay - Set 3. [Related pubchem assays (depositor defined):AID1777, AID1785, AID1786, AID1966, AID2133, AID2136, AID2284, AID2285, AID2420]; assay type: functional
Sequence of Mu-type opioid receptor (P35372 whole entry): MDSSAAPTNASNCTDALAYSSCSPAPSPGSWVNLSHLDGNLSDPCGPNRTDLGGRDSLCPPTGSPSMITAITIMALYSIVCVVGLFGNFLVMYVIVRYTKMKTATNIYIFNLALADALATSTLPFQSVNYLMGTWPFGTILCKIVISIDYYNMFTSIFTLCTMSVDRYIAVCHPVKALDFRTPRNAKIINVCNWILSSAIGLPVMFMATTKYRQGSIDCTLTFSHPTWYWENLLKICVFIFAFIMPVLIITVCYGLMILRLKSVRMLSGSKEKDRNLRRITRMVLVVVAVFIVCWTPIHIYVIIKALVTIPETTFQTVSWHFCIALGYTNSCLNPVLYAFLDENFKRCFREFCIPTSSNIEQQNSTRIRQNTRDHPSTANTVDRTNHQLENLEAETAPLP

[24] = molecular target: Sphingosine 1-phosphate receptor 4 (Homo sapiens, UniProt O95977); assay: Late-stage fluorescence dose response cell-based assay to identify agonists of the Sphingosine 1-Phosphate Receptor 4 (S1P4): purchased compounds EC50. [Related pubchem assays (depositor defined):AID1509, AID1523, AID1563, AID1686, AID1701, AID1801]; assay type: functional
Sequence of Sphingosine 1-phosphate receptor 4 (O95977 whole entry): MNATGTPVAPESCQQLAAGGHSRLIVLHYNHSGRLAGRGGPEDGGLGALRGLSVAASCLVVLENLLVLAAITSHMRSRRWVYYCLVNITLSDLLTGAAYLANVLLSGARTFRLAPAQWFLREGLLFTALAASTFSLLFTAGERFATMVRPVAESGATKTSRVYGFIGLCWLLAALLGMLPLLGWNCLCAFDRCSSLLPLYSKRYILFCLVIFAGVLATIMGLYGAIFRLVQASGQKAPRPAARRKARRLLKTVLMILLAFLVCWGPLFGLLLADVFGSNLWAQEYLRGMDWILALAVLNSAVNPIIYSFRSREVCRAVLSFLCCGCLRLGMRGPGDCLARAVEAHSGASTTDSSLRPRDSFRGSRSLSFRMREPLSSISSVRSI

Sequence of Dual specificity protein phosphatase 3 (P51452 whole entry): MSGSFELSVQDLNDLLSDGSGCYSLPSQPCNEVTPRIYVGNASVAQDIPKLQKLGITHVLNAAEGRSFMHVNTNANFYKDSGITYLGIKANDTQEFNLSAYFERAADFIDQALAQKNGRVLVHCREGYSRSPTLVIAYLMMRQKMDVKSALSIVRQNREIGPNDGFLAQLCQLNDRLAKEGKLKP

## Cc1ccc(C(=O)NC2CCSc3ccccc32)cc1S(N)(=O)=O (centres undefined)
[1]
  IC50: > 100 µM (inactive)
[2]
  IC50: > 100 µM (inactive)

## COc1ccc([C@H]2CC(=O)C=C(c3ccc(OC)nc3)C2)cc1
[3]
  EC50: 3.19 µM (active)

## CN(C)c1ccc(NC(=O)Nc2ccc3snnc3c2)cc1
[4]
  IC50: 0.455 µM (active)
[5]
  EC50: > 29.9 µM (inactive)
[6]
  IC50: 0.187 µM (active)
[7]
  EC50: > 29.9 µM (not active)
[8]
  AC50: 0.204 µM (active)
[9]
  IC50: > 100 µM (active)

## O=C1NC(=O)C2(N1)c1ccccc1-c1ccccc12
[10]
  EC50: 0.334 µM (active)

## CCc1ccc(C(=O)COC(=O)c2cccs2)cc1
[11]
  IC50: > 50 µM (inactive)

## CS(=O)(=O)c1nc(-c2ccco2)cc(C(F)(F)F)n1
[12]
  IC50: 0.644 µM (active)
[13]
  AC50: > 380 µM (inactive)
[14]
  EC50: 5.96 µM (active)
[15]
  EC50: > 380 µM (inactive)
[16]
  Absolute IC50 (CHOP): 10 µM
[17]
  EC50: 3.73 µM (active)
[18]
  EC50: 6.49 µM (active)
[19]
  EC50: 1.61 µM (active)

## CCN(CCNC(=O)c1ccc(CNS(=O)(=O)c2ccc(Br)cc2)cc1)Cc1ccccc1
[20]
  IC50: 4.82 µM (active)
[21]
  IC50: > 32 µM (inactive)
[22]
  IC50: 19.4 µM (inactive)
[23]
  IC50: 8.46 µM (active)

## Cc1ccc(CNC(=O)C(C)OC(=O)c2c(C)nn(Cc3ccccc3)c2Cl)cc1 (centres undefined)
[24]
  EC50: > 50 µM (inactive)
